The values that follow come from patent publication US20080181971A1, “Combination Cancer Treatments Comprising Elsamitrucin and Other Agents” (priority 2007, published 2008).

“And” between values parts separate entries of the source, which are not always exact repeats. Equal values may be shown once. Read-outs that look alike come from different tables or passages of the source.

The test system of experiment [1] is HT29 human colon carcinoma cell line. The experiment is described as follows: MTT growth inhibition assay, single agents and fixed-ratio combinations with elsamitrucin (Chou-Talalay, CalcuSyn), HT29. The format is cell-based. The method, then:
(§1) These individual agents and their combinations were evaluated for in vitro activity against the HT29 colon carcinoma, SKMES non-small cell lung carcinoma, and Daudi B-lymphoblastic cell lines. Cell growth in 96-well microculture plates was determined with a semi-automated MTT assay. Efficacies of drug combinations were analyzed according to the methods of Chou and Talalay, utilizing CalcuSyn software. Twenty-one in vitro experiments were conducted to determine the individual and combined growth inhibitory activities of elsamitrucin and the ten selected agents in the three cell lines.
(§2) b. Cell Lines. The human HT29 colon carcinoma, SKMES non-small cell lung carcinoma, and Daudi B-lymphoblastic cell lines were originally obtained from ATCC (American Type Culture Collection). These cell lines have been maintained and stored as frozen stocks. […] The medium for Daudi cells was additionally supplemented with 1 mM sodium pyruvate.
(§3) c. Growth Inhibition Assay. Anti-proliferative activities against the HT29, SKMES, and Daudi cell lines were evaluated in vitro by the MTT assay. Cells (1,500-2,000 cells/well) were seeded in a 96-well microculture plate in 180 pL of medium/well. […] DMSO was present in all wells at a final concentration of 0.1%. […] When the appropriate cell density was attained in the control wells, the plates were centrifuged briefly, and 100 pL of the growth medium was removed. The cell cultures were incubated with 50 μL of MTT reagent (1 mg/mL in Dulbecco's phosphate-buffered saline) for 4 hr at 37° C. The resultant purple formazan precipitate was solubilized with 200 μL of 0.04 N HCl in isopropanol.
(§4) The results of each experiment were stored in Excel format.
(§5) d. Preliminary Experiments: Design and Data Analysis. […] The initial experiments utilized serial three-fold dilutions of the drugs to produce ten test concentrations over a broad concentration range. Based on the initial results, a narrower concentration range was selected, and serial 1:1.5 dilutions were utilized to produce ten test concentrations. Experiments were repeated as needed.
(§6) For assays that utilized lower dilution factors to produce narrower concentration ranges, the results were analyzed with both Prism and CalcuSyn (as described below) to allow comparison of the IC50 and Da, values. The results guided the selection of appropriate concentration ranges and concentration ratios for the combination experiments.
(§7) e. Combination Experiments: Design and Data Analysis. The fixed-ratio design of Chou was used for the combination experiments. For each experiment, the drug solutions were mixed at a ratio that was expected to provide approximately equipotent concentrations, and the mixture was serially diluted with medium containing 1% DMSO to yield 10× stock solutions of the test concentrations. […] Each agent was tested individually and in combination at seven concentrations. The concentration range selected for each assay was designed to bracket the concentrations that produced half-maximal effects (ED50) with each single agent and their mixture. The concentrations used for the single-drug assays were twice as high as their concentrations in the mixture. Each assay was performed in quadruplicate. For each drug combination, the individual agents and their mixture were assayed on the same 96-well plate. The effects of the individual drugs and their combinations were analyzed by the method of Chou and Talalay. The results of each experiment were entered into CalcuSyn (BIOSOFT) for dose-effect analysis.
(§8) where Acontrol and Adrug are the respective absorbances of vehicle control and drug-treated wells in the MIT assay.
(§9) where the slope, m, is related to the sigmoidicity of the dose-effect curve, with m=1, >1, and <1 indicating hyperbolic, sigmoidal, and reverse sigmoidal shapes, respectively.

For experiment [2], the system named is Daudi human lymphoma cell line. Kind of experiment: MTT growth inhibition assay, single agents and fixed-ratio combinations with elsamitrucin (Chou-Talalay, CalcuSyn), Daudi. The format is cell-based. The method, then:
as §1, §2, §3, §4, §5, §6, §7, §8, §9

The mark [3] stands for this setting: Homo sapiens, HT-29, SPA-01 (HT29-e21), single agent, dilution 1:3, read-out: Prism IC50.
The mark [4] stands for this setting: Homo sapiens, HT-29, SPA-04 (HT29-e22), single agent, dilution 1:1.5, read-out: CalcuSyn Dm.
The mark [5] stands for this setting: Homo sapiens, HT-29, SPA-04 (HT29-e22), single agent, dilution 1:1.5, read-out: Prism IC50.
Where [6] appears, read: Homo sapiens, HT-29, average of preliminary single-agent experiments, HT29, read-out: Average IC50, Dm value.
Where [7] appears, read: Homo sapiens, Daudi, SPA-05 (Daudi-e01), single agent, dilution 1:3, read-out: Prism IC50.
[8] abbreviates: Homo sapiens, Daudi, average of preliminary single-agent experiments, Daudi, read-out: Average IC50, Dm value.

Turning to `N.N.[Cl][Pt][Cl]` [Cisplatin, cisplatin], the “decrease of Dm in the combination” value in experiment [1] (HT29, in combination with elsamitrucin versus single agent) is on record as 38%; in experiment [2] (Daudi, in combination with elsamitrucin versus single agent), 59%. In addition, the IC50 in experiment [1] (HT29, single agent on the same plate as the combination, read-out: Dm Value, Individually, Second Agent) is 2.33 µM and 1.75 µM; in experiment [1] (SPA-01 (HT29-e21), single agent, dilution 1:3, read-out: Prism IC50) it was 1.85 µM; in experiment [1] (SPA-04 (HT29-e22), single agent, dilution 1:1.5, read-out: CalcuSyn Dm) it was 1.93 µM; in experiment [1] (SPA-04 (HT29-e22), single agent, dilution 1:1.5, read-out: Prism IC50), 1.86 µM; in experiment [1] (average of preliminary single-agent experiments, HT29, read-out: Average IC50, Dm value), 1.88 µM; in experiment [2] (Daudi growth inhibition, second agent alone, one value per plate, Table 8 (Supplement), read-out: Dm Value (95% Confidence Interval), Individually, Second Agent), 0.494 µM. Further, the IC50 in experiment [2] (Daudi growth inhibition, second agent alone, Table 8, read-out: Dm Value (95% Confidence Interval), Individually, Second Agent) was 0.494 µM; in experiment [2] (Daudi, read-out: approximate Dm values for the second drugs as single agents), approximately 0.49 µM; in experiment [2] (SPA-05 (Daudi-e01), single agent, dilution 1:3, read-out: Prism IC50), 0.367 µM; in experiment [2] (SPA-08 (Daudi-e02), single agent, dilution 1:1.5, read-out: CalcuSyn Dm) it was 0.343 µM; in experiment [2] (SPA-08 (Daudi-e02), single agent, dilution 1:1.5, read-out: Prism IC50), 0.344 µM; in experiment [2] (average of preliminary single-agent experiments, Daudi, read-out: Average IC50, Dm value), 0.351 µM.
Consider `CC(=O)O[C@H]1C(=O)[C@@]2(C)[C@H]([C@H](OC(=O)c3ccccc3)[C@]3(O)C[C@H](OC(=O)[C@H](O)[C@@H](NC(=O)c4ccccc4)c4ccccc4)C(C)=C1C3(C)C)[C@]1(OC(C)=O)CO[C@@H]1C[C@@H]2O` [Paclitaxel, paclitaxel], for which the IC50 in experiment [1] (Homo sapiens, HT-29, HT29, single agent on the same plate as the combination, read-out: Dm Value, Individually, Second Agent) was 0.0032 µM; in experiment [1] (setting [3]), 0.0016 µM; in experiment [1] (setting [4]) it was 0.0023 µM; in experiment [1] (setting [5]) it was 0.0024 µM; in experiment [1] (setting [6]) it was 0.002 µM; in experiment [2] (Homo sapiens, Daudi, Daudi growth inhibition, second agent alone, one value per plate, Table 8 (Supplement), read-out: Dm Value (95% Confidence Interval), Individually, Second Agent) it was 0.004 µM. Besides, the IC50 in experiment [2] (Homo sapiens, Daudi, Daudi growth inhibition, second agent alone, Table 8, read-out: Dm Value (95% Confidence Interval), Individually, Second Agent) was 0.004 µM; in experiment [2] (setting [7]), 0.0036 µM; in experiment [2] (Homo sapiens, Daudi, SPA-08 (Daudi-e02), single agent, dilution 1:1.5, read-out: CalcuSyn Dm), 0.0041 µM; in experiment [2] (Homo sapiens, Daudi, SPA-08 (Daudi-e02), single agent, dilution 1:1.5, read-out: Prism IC50), 0.0033 µM; in experiment [2] (setting [8]) it was 0.004 µM; in experiment [2] (Homo sapiens, Daudi, read-out: approximate Dm values for the second drugs as single agents), approximately 0.004 µM.
For the compound `CO[C@@H]1[C@@H](N)[C@@H](O[C@H]2[C@H](Oc3cccc4c(O)c5c(=O)oc6ccc(C)c7c(=O)oc(c34)c5c67)O[C@H](C)[C@H](O)[C@]2(C)O)O[C@H](C)[C@@H]1O` [Elsamitrucin, benzo(h)(1)benzopyrano(5,4,3-cde)(1)ebnzopyran-5,12-dione,10((2-O-(2-amino-2,6-dideoxy-3-O-methyl-alpha-D-galactopyranosyl)-6-deoxy-3-C-methyl-beta-D-galactopyranosyl)oxy)-6-hydroxy-1-methyl], the IC50 in experiment [1] (HT29, single agent on the same plate as the combination, read-out: Dm Value, Individually, Elsamitrucin) was 0.036 µM and 0.118 µM and 0.096 µM and 0.058 µM and 0.054 µM and 0.067 µM and 0.039 µM and 0.04 µM and 0.103 µM and 0.051 µM and 0.037 µM and 0.029 µM and 0.086 µM and 0.073 µM and 0.05 µM and 0.071 µM and 0.124 µM and 0.032 µM and 0.027 µM; in experiment [1] (Homo sapiens, HT-29, HT29, Table 1, read-out: average Dm determined in the preliminary experiments) it was 0.077 µM; in experiment [1] (Homo sapiens, HT-29, HT29, single agent, ten selected assays of Table 2, read-out: average Dm) it was 0.063 µM; in experiment [1] (Homo sapiens, HT-29, HT29, single agent, ten selected assays of Table 2, read-out: range of Dm) it was 0.036 to 0.118 µM; in experiment [1] (Homo sapiens, HT-29, HT29 cells, single agent, read-out: average Dm), 0.063 µM; in experiment [1] (setting [3]), 0.08 µM. Also, the IC50 in experiment [1] (setting [4]) was 0.081 µM; in experiment [1] (setting [5]) it was 0.07 µM; in experiment [1] (setting [6]), 0.077 µM; in experiment [2] (Daudi growth inhibition, elsamitrucin alone, one value per plate, Table 8 (Supplement), read-out: Dm Value (95% Confidence Interval), Individually, Elsamitrucin), 0.023 µM and 0.03 µM and 0.028 µM and 0.015 µM and 0.013 µM and 0.034 µM and 0.026 µM; in experiment [2] (Daudi growth inhibition, elsamitrucin alone, one value per plate, Table 8, read-out: Dm Value (95% Confidence Interval), Individually, Elsamitrucin), 0.03 µM and 0.028 µM and 0.013 µM and 0.034 µM and 0.026 µM and 0.023 µM; in experiment [2] (setting [7]) it was 0.012 µM. The IC50 is 0.046 µM in experiment [2] (Homo sapiens, Daudi, SPA-15 (Daudi-e03), single agent, dilution 1:1.5 (elsamitrucin 1:1.33), read-out: CalcuSyn Dm); 0.04 µM in experiment [2] (Homo sapiens, Daudi, SPA-15 (Daudi-e03), single agent, dilution 1:1.5 (elsamitrucin 1:1.33), read-out: Prism IC50); 0.033 µM in experiment [2] (setting [8]); 0.027 µM in experiment [2] (Homo sapiens, Daudi, single agent, ten assays of Table 8, read-out: average Dm); 0.013 to 0.034 µM in experiment [2] (Homo sapiens, Daudi, single agent, ten assays of Table 8, read-out: range of Dm).
